Laboratory results from the NIST ThermoML archive (doi:10.1016/j.jct.2016.03.028).

Tests used:
[1] = xn = mol fraction of the nth substance listed; details: Liquid; for speed of sound: 100 kPa, Frequency=3 MHz, Sing-around technique in a fixed-path interferometer; for mass density: 101.3 kPa, Vibrating tube method
[2] = refractive index (Na D-line) (dimensionless); xn = mol fraction of the nth substance listed; details: 100 kPa, Liquid, Standard Abbe refractometry

CCCOCCO [2-propoxyethanol] + CCOS(=O)(=O)[O-].CCn1cc[n+](C)c1
Details	mass density, [1] [kg/m3]	refractive index, [2]	speed of sound, [1] [m/s]
298.15 K, x2 = 0	908.31	1.41255	1299.9
298.15 K, x2 = 0.0496	936.15	1.41807	1322.2
298.15 K, x2 = 0.0901	957.3	1.42234	1339.6
298.15 K, x2 = 0.1345	979.08	1.42679	1358
298.15 K, x2 = 0.1738	997.17	1.43052	1374
298.15 K, x2 = 0.2568	1032.34	1.43781	1407.7
298.15 K, x2 = 0.3477	1066.65	1.44491	1444.5
298.15 K, x2 = 0.4406	1097.96	1.45131	1482.1
298.15 K, x2 = 0.5477	1130.29	1.45778	1525.4
298.15 K, x2 = 0.6478	1157.57	1.46309	1565.2
298.15 K, x2 = 0.7729	1188.39	1.46902	1612.3
298.15 K, x2 = 0.8263	1200.6	1.4714	1630.9
298.15 K, x2 = 0.8757	1211.4	1.47357	1647
298.15 K, x2 = 0.9346	1223.63	1.47615	1664.4
308.15 K, x2 = 0	899.5	1.40814	1265
308.15 K, x2 = 0.0496	927.63	1.41391	1288.6
308.15 K, x2 = 0.0901	948.98	1.41835	1306.8
308.15 K, x2 = 0.1345	970.94	1.42296	1326.1
308.15 K, x2 = 0.1738	989.17	1.42682	1342.8
308.15 K, x2 = 0.2568	1024.6	1.43433	1377.8
308.15 K, x2 = 0.3477	1059.1	1.44162	1415.6
308.15 K, x2 = 0.4406	1090.57	1.44817	1454.2
308.15 K, x2 = 0.5477	1123.06	1.45477	1498.4
308.15 K, x2 = 0.6478	1150.45	1.4602	1539
308.15 K, x2 = 0.7729	1181.41	1.46625	1587
308.15 K, x2 = 0.8263	1193.67	1.46868	1606
308.15 K, x2 = 0.8757	1204.51	1.47089	1622.3
308.15 K, x2 = 0.9346	1216.76	1.4735	1639.9
318.15 K, x2 = 0	890.56	1.40355	1230.1
318.15 K, x2 = 0.0496	919	1.40953	1254.9
318.15 K, x2 = 0.0901	940.58	1.41413	1274
318.15 K, x2 = 0.1345	962.75	1.41891	1294.2
318.15 K, x2 = 0.1738	981.14	1.4229	1311.6
318.15 K, x2 = 0.2568	1016.84	1.43065	1347.8
318.15 K, x2 = 0.3477	1051.57	1.43817	1386.9
318.15 K, x2 = 0.4406	1083.21	1.44492	1426.5
318.15 K, x2 = 0.5477	1115.85	1.45172	1471.8
318.15 K, x2 = 0.6478	1143.37	1.45729	1513.2
318.15 K, x2 = 0.7729	1174.46	1.46348	1562
318.15 K, x2 = 0.8263	1186.78	1.46595	1581.3
318.15 K, x2 = 0.8757	1197.67	1.46818	1597.9
318.15 K, x2 = 0.9346	1209.98	1.47081	1615.7
328.15 K, x2 = 0	881.49	1.39908	1195.8
328.15 K, x2 = 0.0496	910.28	1.4053	1221.5
328.15 K, x2 = 0.0901	932.1	1.41007	1241.4
328.15 K, x2 = 0.1345	954.51	1.41501	1262.4
328.15 K, x2 = 0.1738	973.08	1.41912	1280.5
328.15 K, x2 = 0.2568	1009.08	1.42711	1318.1
328.15 K, x2 = 0.3477	1044.05	1.43483	1358.5
328.15 K, x2 = 0.4406	1075.88	1.44175	1399.3
328.15 K, x2 = 0.5477	1108.69	1.4487	1445.6
328.15 K, x2 = 0.6478	1136.34	1.45439	1487.8
328.15 K, x2 = 0.7729	1167.58	1.46071	1537.5
328.15 K, x2 = 0.8263	1179.94	1.46322	1557
328.15 K, x2 = 0.8757	1190.88	1.46549	1573.9
328.15 K, x2 = 0.9346	1203.26	1.46815	1591.9
